Laboratory results published in patent publication US5405849A, “Angiotensin II receptor blocking 2,3,6 substituted quinazolinones” (American Cyanamid Company, priority 1993, dated 1995).
Counter-ions that a name gives are not always drawn.

Test system: angiotensin II (AII) vasopressor response
Assay: AII challenge: antagonism of the vasopressor response of angiotensin II in conscious Okamoto-Aoki SHR
Type: in vivo, rat (Okamoto-Aoki SHR)
Conditions: for inhibition in vivo at 5 mg/kg / inhibition in vivo at 1 mg/kg / inhibition in vivo at 2 mg/kg / inhibition in vivo at 30 mg/kg: Rattus norvegicus; for inhibition in vivo at 5 mg/kg: po
From the text: Conscious Male Okamoto-Aoki SHR, 16-20 weeks old, weighing approximately 330 g are purchased from Charles River Labs (Wilmington, Mass.). Conscious rats are restrained in a supine position with elastic tape. The area at the base of the tail is locally anesthetized by subcutaneous infiltration with 2% procaine. The ventral caudal artery and vein are isolated, and a cannula made of polyethylene (PE) 10-20 tubing (fused together by heat) is passed into the lower abdominal aorta and vena cava, respectively. The cannula is secured, heparinized (1,000 I.U./ml), sealed and the wound is closed. The animals are placed in plastic restraining cages in an upright position. The cannula is attached to a Statham P23Db pressure transducer, and pulsatile blood pressure is recorded to 10-15 minutes with a Gould Brush recorder.
Angiotensin II (human sequence, Sigma Chem. Co., St. Louis, Mo.) of 0.05 and 0.1 ug/kg i.v. is injected into all rats (predosing response). Then a test compound, vehicle or a known angiotensin II antagonist is administered i.v., i.p. or orally to each set of rats. […] The vasopressor response of angiotensin II is measured for the increase in systolic blood pressure in mmHg. The percentage of antagonism or blockade of the vasopressor response of angiotensin II by a compound is calculated using the vasopressor response (increase in systolic blood pressure) of angiotensin II of each rat predosing the compound as 100%.

[1] = 1 mg/kg iv, AII .1 ug/kg, 30 min
[2] = 2 mg/kg iv, AII .05 ug/kg, 180 min
[3] = iv, 0.5 h, 1 mg/kg iv, AII .1 ug/kg, 30 min
[4] = iv, 0.75 h, 1 mg/kg iv, AII .1 ug/kg, 45 min
[5] = iv, 1.5 h, 1 mg/kg iv, AII .05 ug/kg, 90 min
[6] = iv, 1.5 h, 1 mg/kg iv, AII .1 ug/kg, 90 min
[7] = iv, 2 h, 2 mg/kg iv, AII .05 ug/kg, 120 min
[8] = iv, 2 h, 2 mg/kg iv, AII .1 ug/kg, 120 min
[9] = iv, 2.5 h, 2 mg/kg iv, AII .05 ug/kg, 150 min
[10] = iv, 3 h, 2 mg/kg iv, AII .05 ug/kg, 180 min
[11] = iv, 3 h, 2 mg/kg iv, AII .1 ug/kg, 180 min

In the case of `CCCCc1nc2ccc(C(C)(C)O)cc2c(=O)n1Cc1ccc(-c2ccccc2-c2nnn[nH]2)cc1` [Example 51, 2-butyl-6-(1-hydroxy-1-methylethyl)-3-[[2'-(1H-tetrazol-5-yl)-[1,1'-biphenyl]-4-yl]methyl]-4(3H)-quinazolinone], the inhibition in vivo at 5 mg/kg (0.5 h, 5 mg/kg oral, AII .05 ug/kg, 30 min) is reported as 30%, the inhibition in vivo at 5 mg/kg (0.5 h, 5 mg/kg oral, AII .1 ug/kg, 30 min) is reported as 26% and the inhibition in vivo at 5 mg/kg (1.5 h, 5 mg/kg oral, AII .05 ug/kg, 90 min) is reported as 75%. For the same compound, the inhibition in vivo at 5 mg/kg (1.5 h, 5 mg/kg oral, AII .1 ug/kg, 90 min) was 55%, the inhibition in vivo at 5 mg/kg (2.5 h, 5 mg/kg oral, AII .05 ug/kg, 150 min) was 63% and the inhibition in vivo at 5 mg/kg (2.5 h, 5 mg/kg oral, AII .1 ug/kg, 150 min) was 46%.
With `CCCCc1nc2ccc(C(O)c3ccccc3)cc2c(=O)n1Cc1ccc(-c2ccccc2-c2nnn[nH]2)cc1` (stereo not shown) [Example 54] the “Response change (systolic BP increase to AII)” value [1] was 35 mmHg, the “Response change (systolic BP increase to AII)” value [2] was 17 mmHg and the “Response change (systolic BP increase to AII)” value (5 mg/kg oral, AII .05 ug/kg, 180 min) was 25 mmHg. The “Response change (systolic BP increase to AII)” value (5 mg/kg oral, AII .1 ug/kg, 180 min) was 48 mmHg, the inhibition in vivo at 1 mg/kg (iv, 0.5 h, 1 mg/kg iv, AII .05 ug/kg, 30 min) was 47% and the inhibition in vivo at 1 mg/kg [3] was 30%. The inhibition in vivo at 1 mg/kg (iv, 0.75 h, 1 mg/kg iv, AII .05 ug/kg, 45 min) was 75%, the inhibition in vivo at 1 mg/kg [4] was 28% and the inhibition in vivo at 1 mg/kg [5] was 49%. The inhibition in vivo at 1 mg/kg [6] was 34%, the inhibition in vivo at 2 mg/kg [7] was 85% and the inhibition in vivo at 2 mg/kg [8] was 64%. It also gave an inhibition in vivo at 2 mg/kg [9] of 67%, an inhibition in vivo at 2 mg/kg (iv, 2.5 h, 2 mg/kg iv, AII .1 ug/kg, 150 min) of 54% and an inhibition in vivo at 2 mg/kg [10] of 69%. For the same compound, the inhibition in vivo at 2 mg/kg [11] was 50%, the inhibition in vivo at 5 mg/kg (3 h, 5 mg/kg oral, AII .05 ug/kg, 180 min) was 55% and the inhibition in vivo at 5 mg/kg (3 h, 5 mg/kg oral, AII .1 ug/kg, 180 min) was 26%.
`CCCCc1nc2ccc(C(C)(C)O)cc2c(=O)n1Cc1ccc(-c2ccccc2-c2nnn[nH]2)cc1` [Example 61, 2-Butyl-6-(1-hydroxy-1-methylethyl)-3-[[2'-(1H-(tetrazol-5-yl) [1,1'-biphenyl]-4-yl]methyl]-4(3H)-quinazolinone monosodium salt] was tested, and the “Response change (systolic BP increase to AII)” value (1 mg/kg iv, AII .05 ug/kg, 30 min) was 40 mmHg, the “Response change (systolic BP increase to AII)” value (1 mg/kg iv, AII .05 ug/kg, 45 min) was 25 mmHg and the “Response change (systolic BP increase to AII)” value (1 mg/kg iv, AII .05 ug/kg, 90 min) was 45 mmHg. For the same compound, the “Response change (systolic BP increase to AII)” value [1] was 55 mmHg, the “Response change (systolic BP increase to AII)” value (1 mg/kg iv, AII .1 ug/kg, 45 min) was 40 mmHg and the “Response change (systolic BP increase to AII)” value (1 mg/kg iv, AII .1 ug/kg, 90 min) was 65 mmHg. The “Response change (systolic BP increase to AII)” value (2 mg/kg iv, AII .025 ug/kg, 30 min) was 0 mmHg, the “Response change (systolic BP increase to AII)” value (2 mg/kg iv, AII .025 ug/kg, 90 min) was 0 mmHg and the “Response change (systolic BP increase to AII)” value (2 mg/kg iv, AII .025 ug/kg, 150 min) was 0 mmHg. For the same compound, the “Response change (systolic BP increase to AII)” value (2 mg/kg iv, AII .05 ug/kg, 30 min) was 0 mmHg, the “Response change (systolic BP increase to AII)” value (2 mg/kg iv, AII .05 ug/kg, 90 min) was 0 mmHg and the “Response change (systolic BP increase to AII)” value (2 mg/kg iv, AII .05 ug/kg, 120 min) was 25 mmHg. For the same compound, the “Response change (systolic BP increase to AII)” value [2] was 40 mmHg, the “Response change (systolic BP increase to AII)” value (2 mg/kg iv, AII .1 ug/kg, 30 min) was 0 mmHg and the “Response change (systolic BP increase to AII)” value (2 mg/kg iv, AII .1 ug/kg, 90 min) was 0 mmHg. For the same compound, the “Response change (systolic BP increase to AII)” value (2 mg/kg iv, AII .1 ug/kg, 120 min) was 50 mmHg, the “Response change (systolic BP increase to AII)” value (2 mg/kg iv, AII .1 ug/kg, 180 min) was 45 mmHg and the inhibition in vivo at 1 mg/kg (0.5 h, 1 mg/kg iv, AII .05 ug/kg, 30 min) was 20%. For the same compound, the inhibition in vivo at 1 mg/kg (0.75 h, 1 mg/kg iv, AII .05 ug/kg, 45 min) was 50%, the inhibition in vivo at 2 mg/kg (2.5 h, 2 mg/kg iv, AII .05 ug/kg, 150 min) was 30% and the inhibition in vivo at 1 mg/kg [3] was 8%. The inhibition in vivo at 2 mg/kg (iv, 0.5 h, 2 mg/kg iv, AII .025 ug/kg, 30 min) was 100%, the inhibition in vivo at 2 mg/kg (iv, 0.5 h, 2 mg/kg iv, AII .05 ug/kg, 30 min) was 100% and the inhibition in vivo at 2 mg/kg (iv, 0.5 h, 2 mg/kg iv, AII .1 ug/kg, 30 min) was 100%. For the same compound, the inhibition in vivo at 1 mg/kg [4] was 33%, the inhibition in vivo at 1 mg/kg [5] was 10% and the inhibition in vivo at 1 mg/kg [6] was 8%. It also gave an inhibition in vivo at 2 mg/kg (iv, 1.5 h, 2 mg/kg iv, AII .025 ug/kg, 90 min) of 100%, an inhibition in vivo at 2 mg/kg (iv, 1.5 h, 2 mg/kg iv, AII .05 ug/kg, 90 min) of 100% and an inhibition in vivo at 2 mg/kg (iv, 1.5 h, 2 mg/kg iv, AII .1 ug/kg, 90 min) of 100%. For the same compound, the inhibition in vivo at 2 mg/kg [7] was 50%, the inhibition in vivo at 2 mg/kg [8] was 17% and the inhibition in vivo at 2 mg/kg (iv, 2.5 h, 2 mg/kg iv, AII .025 ug/kg, 150 min) was 100%. For the same compound, the inhibition in vivo at 2 mg/kg [9] was 100%, the inhibition in vivo at 2 mg/kg [10] was 20% and the inhibition in vivo at 2 mg/kg [11] was 25%.
In the case of `CCCCc1nc2ccccc2c(=O)n1Cc1ccc(-c2ccccc2-c2nnn[nH]2)cc1` [Example 50], the “Response change (systolic BP increase to AII)” value (30 mg/kg iv, AII .05 ug/kg, 90 min) is reported as 30 mmHg, the inhibition in vivo at 30 mg/kg (iv, 0.5 h, 30 mg/kg iv, AII .05 ug/kg, 30 min) is reported as 82% and the inhibition in vivo at 30 mg/kg (iv, 0.5 h, 30 mg/kg iv, AII .1 ug/kg, 30 min) is reported as 76%. It also gave an inhibition in vivo at 30 mg/kg (iv, 1.5 h, 30 mg/kg iv, AII .05 ug/kg, 90 min) of 29%, an inhibition in vivo at 30 mg/kg (iv, 1.5 h, 30 mg/kg iv, AII .1 ug/kg, 90 min) of 52% and an inhibition in vivo at 30 mg/kg (iv, 2.5 h, 30 mg/kg iv, AII .05 ug/kg, 150 min) of 41%. It also gave an inhibition in vivo at 30 mg/kg (iv, 2.5 h, 30 mg/kg iv, AII .1 ug/kg, 150 min) of 48%.
